Results from ChEMBL document CHEMBL6177981, “Bardoxolone Derivatives as Novel Pseudo-Natural Necroptosis Inhibitors by Destabilizing HSP90 Client Proteins” (J Med Chem, 2025).
Calls of active or inactive are those of the source. No cut-off for these calls is given here.

Experiments:
HT-29 [1] = experiment: Upregulation of HSP70 protein level in TSZ-induced human HT-29 cells at 10 uM preincubated with compound followed by Z-VAD-FMK, SM164 and TNFalpha stimulation and measured after 6 hrs by Western blot analysis; assay type: functional, cell-based
[2] = target: Heat shock protein HSP90 (Homo sapiens) (UniProt P07900+P08238); experiment: Inhibition of HSP90 in TSZ-induced human HT-29 cells assessed as reduction in EGFR protein level at 10 uM preincubated with compound followed by Z-VAD-FMK, SM164 and TNFalpha stimulation and measured after 6 hrs by Western blot analysis; assay type: cell-based
Mus musculus [3] = experiment: Anti-necroptotic activity in TNFalpha/Z-VAD-FMK induced SIRS male C57BL/6J mouse model assessed as survival rate at 5 mg/kg, po pre-administered with compound via gavage for 2 hrs followed by […] of Z-VAD-FMK stimulation for 15 mins with subsequent TNF-alpha stimulation for 1 hrs and re-current […] of Z-VAD-FMK stimulation and measured after 8 hrs post SIRS induction relative to control; assay type: functional; settings: time 10 hrs
[4] = Acute toxicity in male C57BL/6J mouse assessed as inflammatory cell infiltration in liver at 2 g/Kg, IG measured after 72 hrs by H and E staining based analysis; assay type: tissue-based; settings: in vivo, po, 2000 mg/kg
[5] = Acute toxicity in male C57BL/6J mouse assessed as structural changes in kidney at 2 g/Kg, IG measured after 72 hrs by H and E staining based analysis; assay type: tissue-based; settings: in vivo, po, 2000 mg/kg
HT-29 [6] = experiment: Anti-necroptotic activity in TSZ-induced human HT-29 cells assessed as increase in cell viability preincubated with compound followed by Z-VAD-FMK, SM164 and TNFalpha addition and measured after 12 hrs by CellTiter-Lumi luminescent cell viability assay; assay type: functional, cell-based; settings: dose 0.156-10 µM
HT-29 [7] = experiment: Downregulation of RIPK3 protein level in human HT-29 cells at 6 uM preincubated with MG132 for 2 hrs followed by compound addition and measured after 9 hrs by Western blot analysis; assay type: functional, cell-based
Mus musculus [8] = experiment: (§1) Anti-necroptotic activity in TNFalpha/Z-VAD-FMK induced SIRS male C57BL/6J mouse model assessed as reduction in IL-1beta in intestine at 5 to 10 mg/kg, po pre-administered with compound via gavage for 2 hrs followed by 180 mg of Z-VAD-FMK stimulation for 15 mins with subsequent TNF-alpha stimulation for 1 hrs and re-current 70 mg of Z-VAD-FMK stimulation and measured after 8 hrs post SIRS induction by ELISA; assay type: functional, organism-based; settings: dose 5-10 mg/kg, time 10.0 hrs
[9] = target: T1, Receptor-interacting serine/threonine-protein kinase 1 (Homo sapiens) (UniProt Q13546); experiment: Inhibition of RIPK1 activation in TSZ-induced human HT-29 cells at 10 uM preincubated with compound followed by Z-VAD-FMK, SM164 and TNFalpha stimulation and measured after 6 hrs by Western blot analysis; assay type: cell-based
T1 sequence (whole entry): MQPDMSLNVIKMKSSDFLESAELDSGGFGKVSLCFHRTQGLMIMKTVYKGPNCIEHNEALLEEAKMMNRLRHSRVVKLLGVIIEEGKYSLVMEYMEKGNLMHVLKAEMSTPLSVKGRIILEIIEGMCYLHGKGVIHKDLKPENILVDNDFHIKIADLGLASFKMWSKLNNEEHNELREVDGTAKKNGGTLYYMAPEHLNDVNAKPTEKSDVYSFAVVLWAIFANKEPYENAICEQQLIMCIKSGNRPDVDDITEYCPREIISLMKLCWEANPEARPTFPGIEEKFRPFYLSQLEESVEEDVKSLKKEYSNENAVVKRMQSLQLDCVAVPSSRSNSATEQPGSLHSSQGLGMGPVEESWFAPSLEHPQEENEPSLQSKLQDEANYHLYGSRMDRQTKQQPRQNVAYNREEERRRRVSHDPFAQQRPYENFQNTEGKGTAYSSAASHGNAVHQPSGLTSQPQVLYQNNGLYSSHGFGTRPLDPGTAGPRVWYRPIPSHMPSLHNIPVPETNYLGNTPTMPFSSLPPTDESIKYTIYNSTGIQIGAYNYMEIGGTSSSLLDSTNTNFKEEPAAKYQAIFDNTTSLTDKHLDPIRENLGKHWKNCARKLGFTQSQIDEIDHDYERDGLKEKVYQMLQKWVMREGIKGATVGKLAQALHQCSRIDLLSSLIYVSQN

[10] = target: Heat shock protein HSP 90-alpha (Homo sapiens, UniProt P07900); experiment: Binding affinity to N-terminal 6His/SUMO-tagged recombinant human HS90AA1 assessed as dissociation constant incubated for 30 mins by MST analysis
[11] = Acute toxicity in male C57BL/6J mouse assessed as inflammatory cell infiltration in brain at 2 g/Kg, IG measured after 72 hrs by H and E staining based analysis; assay type: tissue-based; settings: in vivo, po, 2000 mg/kg
HT-29 [12] = experiment: Downregulation of RIPK1 protein level in human HT-29 cells at 6 uM preincubated with NH4Cl for 2 hrs followed by compound addition and measured after 9 hrs by Western blot analysis; assay type: functional, cell-based
[13] = Acute toxicity in male C57BL/6J mouse assessed as effect on urea level at 2 g/Kg, IG measured after 72 hrs; settings: in vivo, po, 2000 mg/kg
Mus musculus [14] = experiment: as §1, with “IL6” for “IL-1beta”; assay type: functional, organism-based; settings: dose 5-10 mg/kg, time 10.0 hrs
[15] = Tmax in Sprague-Dawley rat at 10 mg/kg, IG measured after 24 hrs by LC-MS/MS analysis; assay type: ADME, organism-based; settings: in vivo, po
[16] = Acute toxicity in male C57BL/6J mouse assessed as inflammatory cell infiltration in heart at 2 g/Kg, IG measured after 72 hrs by H and E staining based analysis; assay type: tissue-based; settings: in vivo, po, 2000 mg/kg
[17] = Acute toxicity in male C57BL/6J mouse assessed as structural changes in liver at 2 g/Kg, IG measured after 72 hrs by H and E staining based analysis; assay type: tissue-based; settings: in vivo, po, 2000 mg/kg
Mus musculus [18] = experiment: as §1, with “lung” for “intestine”; assay type: functional, organism-based; settings: dose 5-10 mg/kg, time 10.0 hrs
HT-29 [19] = experiment: Anti-apoptotic activity in TS-induced human HT-29 cells assessed as increase in cell viability at 1.25 to 20 uM preincubated with compound followed by TNF-alpha and SM164 addition and measured after 36 hrs by CellTiter-Lumi luminescent cell viability assay; assay type: functional, cell-based; settings: dose 1.25-20 µM
L929 = experiment: Anti-necroptotic activity in TZ-induced mouse L929 cells assessed as increase in cell viability preincubated with compound followed by Z-VAD-FMK and mTNFalpha stimulation and measured after 4 hrs by CellTiter-Lumi luminescent cell viability assay; assay type: functional, cell-based; settings: dose 0.625-10 µM
HeLa = experiment: Inhibition of MLKL protein expression in RIPK3-deficient human HeLa cells at 6 uM preincubated with NH4Cl for 2 hrs followed by compound addition and measured after 9 hrs by Western blot analysis; assay type: functional, cell-based
[20] = AUC (0 to 24 hrs) in Sprague-Dawley rat at 10 mg/kg, IG measured after 24 hrs by LC-MS/MS analysis; assay type: ADME, organism-based; settings: in vivo, po
HT-29 [21] = experiment: Upregulation of HSP70 expression in human HT-29 cells at 1.5 uM incubated for 9 hrs by Western blot analysis; assay type: functional, cell-based

Question: Which results are given for `Cn1ccc(-c2ccc(NC(=O)[C@]34CCC(C)(C)C[C@H]3[C@H]3C(=O)C=C5[C@@]6(C)C=C(C#N)C(=O)C(C)(C)[C@@H]6CC[C@@]5(C)[C@]3(C)CC4)cc2)n1`?
Answer: Activity (HT-29 [1]): inactive; inhibition [2]: Active; survival at 5 mg/kg (Mus musculus [3]): 58%; Activity [4]: Non-toxic; Activity [5]: Non-toxic; Activity (HT-29 [6]): Dose-dependent-effect; Activity (HT-29 [7]): Active; Activity (Mus musculus [8]): Active; inhibition [9]: Active; Kd [10]: 185 nM; Activity [11]: Non-toxic; Activity (HT-29 [12]): Active; Activity [13]: Non-toxic; Activity (Mus musculus [14]): Active; Tmax [15]: 14 h; Activity [16]: Non-toxic; Activity [17]: Non-toxic; Activity (Mus musculus [18]): Active; Activity (HT-29 [19]): inactive; Activity (L929): Dose-dependent-effect; inhibition (HeLa): Active; AUC(0-t) at 24 h [20]: 1080 ng·h/mL; Activity (HT-29 [21]): Active
